# In publication PMC5218480 (PLoS ONE, 2017):
# Tested on: MV-4-11 cells
# Assay: Gene expression microarray analysis (Affymetrix PrimeView) and GSEA
# Format: cell-based, human
# Set-up: RFU PODN (11730768_x_at) / Fold change /veh PODN (11730768_x_at) / RFU LINC00158 (11744669_a_at) / Fold change /veh LINC00158 (11744669_a_at) / RFU DUSP10 (11751237_a_at) / Fold change /veh DUSP10 (11751237_a_at) / RFU ID3 (11757404_x_at) / Fold change /veh ID3 (11757404_x_at) / RFU PLEKHG5 (11737974_s_at) / Fold change /veh PLEKHG5 (11737974_s_at) / RFU LRRC4B (11730491_at) / Fold change /veh LRRC4B (11730491_at) / RFU GIMAP4 (11747438_a_at) / Fold change /veh GIMAP4 (11747438_a_at) / RFU KRT8 (11758183_x_at) / Fold change /veh KRT8 (11758183_x_at) / RFU CNN1 (11734310_a_at) / Fold change /veh CNN1 (11734310_a_at) / RFU VPS37D (11726825_at) / Fold change /veh VPS37D (11726825_at) / RFU C10orf10 (11716522_x_at) / Fold change /veh C10orf10 (11716522_x_at) / RFU KIR2DL2 /// KIR2DL4 /// KIR2DL5A /// KIR2DL5B /// KIR2DS1 /// KIR2DS2 /// KIR2DS3 /// KIR2DS4 /// KIR3DL3 /// KIR3DL3 /// KIR3DS1 (11738374_at) / Fold change /veh KIR2DL2 /// KIR2DL4 /// KIR2DL5A /// KIR2DL5B /// KIR2DS1 /// KIR2DS2 /// KIR2DS3 /// KIR2DS4 /// KIR3DL3 /// KIR3DL3 /// KIR3DS1 (11738374_at) / RFU C1QL1 (11718748_at) / Fold change /veh C1QL1 (11718748_at) / RFU TMPRSS4 (11747572_a_at) / Fold change /veh TMPRSS4 (11747572_a_at) / RFU HAMP (11756126_x_at) / Fold change /veh HAMP (11756126_x_at) / RFU RNFT2 (11725882_a_at) / Fold change /veh RNFT2 (11725882_a_at) / RFU NR4A2 (11747474_a_at) / Fold change /veh NR4A2 (11747474_a_at) / RFU ABCC12 (11746883_a_at) / Fold change /veh ABCC12 (11746883_a_at) / RFU TMEM136 (11760407_x_at) / Fold change /veh TMEM136 (11760407_x_at) / RFU CLDN22 /// WWC2 (11732394_at) / Fold change /veh CLDN22 /// WWC2 (11732394_at) / RFU HLA-DPB1 (11760878_x_at) / Fold change /veh HLA-DPB1 (11760878_x_at) / RFU SPINT1 (11716480_a_at) / Fold change /veh SPINT1 (11716480_a_at) / RFU GAP43 (11754022_s_at) / Fold change /veh GAP43 (11754022_s_at) / RFU A4GNT (11735810_at) / Fold change /veh A4GNT (11735810_at) / RFU PRB3 (11715151_x_at) / Fold change /veh PRB3 (11715151_x_at) / RFU TUBB4B (11761932_at) / Fold change /veh TUBB4B (11761932_at) / RFU CAPN14 (11732068_a_at) / Fold change /veh CAPN14 (11732068_a_at) / RFU TMCC2 (11721928_a_at) / Fold change /veh TMCC2 (11721928_a_at) / RFU IRGQ (11745062_a_at) / Fold change /veh IRGQ (11745062_a_at) / RFU FAM174B (11720279_a_at) / Fold change /veh FAM174B (11720279_a_at) / RFU TMPRSS4 (11748680_a_at) / Fold change /veh TMPRSS4 (11748680_a_at) / RFU FAM212B (11763350_a_at) / Fold change /veh FAM212B (11763350_a_at) / RFU PLEKHG5 (11743358_a_at) / Fold change /veh PLEKHG5 (11743358_a_at) / RFU ZSCAN30 (11745921_a_at) / Fold change /veh ZSCAN30 (11745921_a_at) / RFU CMKLR1 (11741424_a_at) / Fold change /veh CMKLR1 (11741424_a_at) / RFU LOC101060620 /// MAPK8IP1 (11723275_at) / Fold change /veh LOC101060620 /// MAPK8IP1 (11723275_at) / RFU SPTSSB (11747773_x_at) / Fold change /veh SPTSSB (11747773_x_at) / RFU PRSS12 (11739890_at) / Fold change /veh PRSS12 (11739890_at) / RFU BIN1 (11741810_x_at) / Fold change /veh BIN1 (11741810_x_at) / RFU WNT11 (11732464_a_at) / Fold change /veh WNT11 (11732464_a_at) / RFU C10orf10 (11716521_a_at) / Fold change /veh C10orf10 (11716521_a_at) / RFU C5orf56 (11738089_at) / Fold change /veh C5orf56 (11738089_at) / RFU CYB561 (11721691_x_at) / Fold change /veh CYB561 (11721691_x_at) / RFU ANKRD19P (11752326_a_at) / Fold change /veh ANKRD19P (11752326_a_at) / RFU OR2T12 /// OR2T33 /// OR2T8 (11738714_s_at) / Fold change /veh OR2T12 /// OR2T33 /// OR2T8 (11738714_s_at) / RFU VCAN (11748164_a_at) / Fold change /veh VCAN (11748164_a_at) / RFU JSRP1 (11732532_at) / Fold change /veh JSRP1 (11732532_at) / RFU KRTAP10-11 (11738290_x_at) / Fold change /veh KRTAP10-11 (11738290_x_at) / RFU MYO3A (11730013_a_at) / Fold change /veh MYO3A (11730013_a_at) / RFU EBF3 (11725865_a_at) / Fold change /veh EBF3 (11725865_a_at) / RFU CAMK2N1 (11719241_x_at) / Fold change /veh CAMK2N1 (11719241_x_at) / RFU C5orf56 (11738088_a_at) / Fold change /veh C5orf56 (11738088_a_at) / RFU OLFML3 (11715873_a_at) / Fold change /veh OLFML3 (11715873_a_at) / RFU LOC100653217 /// NTM (11731650_a_at) / Fold change /veh LOC100653217 /// NTM (11731650_a_at) / RFU MAPK11 (11762145_a_at) / Fold change /veh MAPK11 (11762145_a_at) / RFU FIZ1 (11724087_x_at) / Fold change /veh FIZ1 (11724087_x_at) / RFU OASL (11726364_x_at) / Fold change /veh OASL (11726364_x_at) / RFU SOX15 (11748057_x_at) / Fold change /veh SOX15 (11748057_x_at) / RFU CD79A (11719716_a_at) / Fold change /veh CD79A (11719716_a_at) / RFU HIST1H1D (11736915_at) / Fold change /veh HIST1H1D (11736915_at) / RFU CASKIN2 (11723855_a_at) / Fold change /veh CASKIN2 (11723855_a_at) / RFU LOC730098 (11760151_x_at) / Fold change /veh LOC730098 (11760151_x_at) / RFU OR4N2 (11742367_at) / Fold change /veh OR4N2 (11742367_at) / RFU PRRT2 (11749266_a_at) / Fold change /veh PRRT2 (11749266_a_at) / RFU SNX32 (11753110_a_at) / Fold change /veh SNX32 (11753110_a_at) / RFU CDHR5 (11726645_a_at) / Fold change /veh CDHR5 (11726645_a_at) / RFU RCAN1 (11760418_a_at) / Fold change /veh RCAN1 (11760418_a_at) / RFU FAM167A (11723789_a_at) / Fold change /veh FAM167A (11723789_a_at) / RFU FAM26E (11764081_at) / Fold change /veh FAM26E (11764081_at) / RFU ISYNA1 (11749810_s_at) / Fold change /veh ISYNA1 (11749810_s_at) / RFU ACY1 (11761880_at) / Fold change /veh ACY1 (11761880_at) / RFU 11764098_at / Fold change /veh 11764098_at / RFU SAMD14 (11745864_x_at) / Fold change /veh SAMD14 (11745864_x_at) / RFU NPB (11741838_a_at) / Fold change /veh NPB (11741838_a_at) / RFU TMPRSS6 (11731388_a_at) / Fold change /veh TMPRSS6 (11731388_a_at) / RFU KRTAP10-2 (11738614_at) / Fold change /veh KRTAP10-2 (11738614_at) / RFU ARHGAP8 /// PRR5-ARHGAP8 (11727945_x_at) / Fold change /veh ARHGAP8 /// PRR5-ARHGAP8 (11727945_x_at) / RFU KRTAP5-7 /// NADSYN1 (11734609_at) / Fold change /veh KRTAP5-7 /// NADSYN1 (11734609_at) / RFU RASL12 (11751679_a_at) / Fold change /veh RASL12 (11751679_a_at) / RFU CDKN2B (11736163_a_at) / Fold change /veh CDKN2B (11736163_a_at) / RFU PRF1 (11729649_at) / Fold change /veh PRF1 (11729649_at) / RFU, ZNF638 /// ZNF638-IT1 / Fold change vs veh, ZNF638 /// ZNF638-IT1 / RFU, PANK3 / Fold change vs veh, PANK3 / RFU, SH3YL1 / Fold change vs veh, SH3YL1 / RFU, ZEB2 / Fold change vs veh, ZEB2 / RFU, NRIP1 / Fold change vs veh, NRIP1 / RFU, PTTG1IP / Fold change vs veh, PTTG1IP / RFU, CAPN2 / Fold change vs veh, CAPN2 / RFU, MED14 / Fold change vs veh, MED14 / RFU, SNORA58 / Fold change vs veh, SNORA58 / RFU, C1orf63 / Fold change vs veh, C1orf63 / RFU, LRRFIP1 / Fold change vs veh, LRRFIP1 / RFU, NDUFAF7 / Fold change vs veh, NDUFAF7 / RFU, SLC12A2 / Fold change vs veh, SLC12A2 / RFU, IBTK / Fold change vs veh, IBTK / RFU, ESF1 / Fold change vs veh, ESF1 / Fold change vs veh, TMEM50B / RFU, TAOK1 / Fold change vs veh, TAOK1 / RFU, ACBD3 / Fold change vs veh, ACBD3 / RFU, TMA16 / Fold change vs veh, TMA16 / RFU, RWDD3 / Fold change vs veh, RWDD3 / RFU, BCAT1 / Fold change vs veh, BCAT1 / RFU, EDEM3 / Fold change vs veh, EDEM3 / RFU, TMEM33 / Fold change vs veh, TMEM33 / RFU, WDR75 / Fold change vs veh, WDR75 / RFU, AHCTF1 / Fold change vs veh, AHCTF1 / RFU, TFRC / Fold change vs veh, TFRC / RFU, ZDHHC17 / Fold change vs veh, ZDHHC17 / RFU, NOM1 / Fold change vs veh, NOM1 / RFU, ARL8B / Fold change vs veh, ARL8B / RFU, ZBTB11 / Fold change vs veh, ZBTB11 / RFU, TAMM41 / Fold change vs veh, TAMM41 / RFU, KIAA1704 /// LOC100996395 / Fold change vs veh, KIAA1704 /// LOC100996395 / RFU, ING1 / Fold change vs veh, ING1 / RFU, TRMT61B / Fold change vs veh, TRMT61B / RFU, FUBP3 / Fold change vs veh, FUBP3 / RFU, TP53 / Fold change vs veh, TP53 / RFU, TNKS2 / Fold change vs veh, TNKS2 / RFU, ZFP14 / Fold change vs veh, ZFP14 / RFU, ACTR2 / Fold change vs veh, ACTR2 / RFU, PPP3R1 / Fold change vs veh, PPP3R1 / RFU, PIK3R1 / Fold change vs veh, PIK3R1 / RFU, HNRNPA1 / Fold change vs veh, HNRNPA1 / RFU, RNF170 / Fold change vs veh, RNF170 / RFU, ZNF28 / Fold change vs veh, ZNF28 / RFU, RNGTT / Fold change vs veh, RNGTT / RFU, OGT / Fold change vs veh, OGT / RFU, BRD1 / Fold change vs veh, BRD1 / RFU, MARS / Fold change vs veh, MARS / RFU, ZNF655 / Fold change vs veh, ZNF655 / RFU, FAHD1 / Fold change vs veh, FAHD1 / RFU, BDP1 / Fold change vs veh, BDP1 / RFU, LRRCC1 / Fold change vs veh, LRRCC1 / RFU, ARID1A / Fold change vs veh, ARID1A / RFU, ZNF146 / Fold change vs veh, ZNF146 / RFU, ZNF330 / Fold change vs veh, ZNF330 / RFU, GPN3 / Fold change vs veh, GPN3 / RFU, C9orf123 / Fold change vs veh, C9orf123 / RFU, N4BP2L2 / Fold change vs veh, N4BP2L2 / RFU, ARFIP1 / Fold change vs veh, ARFIP1 / RFU, FAM179B / Fold change vs veh, FAM179B / RFU, BCL10 / Fold change vs veh, BCL10 / RFU, UHRF1BP1L / Fold change vs veh, UHRF1BP1L / RFU, BET1 / Fold change vs veh, BET1 / RFU, CNOT2 / Fold change vs veh, CNOT2 / RFU, ZNF268 / Fold change vs veh, ZNF268 / Fold change vs veh, ZNF507 / RFU, DGCR2 / Fold change vs veh, DGCR2 / RFU, WDSUB1 / Fold change vs veh, WDSUB1 / Fold change vs veh, HSP90B1 /// MIR3652 / RFU, ADSS / Fold change vs veh, ADSS / RFU, GK / Fold change vs veh, GK / RFU, ZNF148 / Fold change vs veh, ZNF148 / RFU, TAF9 / Fold change vs veh, TAF9 / RFU, SLC1A5 / Fold change vs veh, SLC1A5 / RFU, SLMO2 / Fold change vs veh, SLMO2 / RFU, ABCC4 / Fold change vs veh, ABCC4 / RFU, LOC101060439 /// RAP1B / Fold change vs veh, LOC101060439 /// RAP1B / RFU, RFX7 / Fold change vs veh, RFX7 / RFU, GTPBP10 / Fold change vs veh, GTPBP10 / RFU, CNEP1R1 / Fold change vs veh, CNEP1R1 / RFU, BIVM-ERCC5 /// ERCC5 / Fold change vs veh, BIVM-ERCC5 /// ERCC5 / RFU, ILF3 / Fold change vs veh, ILF3 / RFU 11762660_at / Fold change /veh 11762660_at / RFU VCAN (11757783_s_at) / Fold change /veh VCAN (11757783_s_at) / RFU DDX43 (11728927_at) / Fold change /veh DDX43 (11728927_at) / RFU KRT8 (11758188_x_at) / Fold change /veh KRT8 (11758188_x_at) / RFU NKD1 (11759106_at) / Fold change /veh NKD1 (11759106_at) / RFU SRD5A1 (11742802_a_at) / Fold change /veh SRD5A1 (11742802_a_at) / RFU TPSAB1 /// TPSB2 (11721975_s_at) / Fold change /veh TPSAB1 /// TPSB2 (11721975_s_at) / RFU GSTM3 (11746129_a_at) / Fold change /veh GSTM3 (11746129_a_at) / RFU IL23R (11737362_x_at) / Fold change /veh IL23R (11737362_x_at) / RFU TMEM51 (11727254_a_at) / Fold change /veh TMEM51 (11727254_a_at) / RFU PIWIL2 (11732686_x_at) / Fold change /veh PIWIL2 (11732686_x_at) / RFU ORM1 (11744905_x_at) / Fold change /veh ORM1 (11744905_x_at) / RFU CCDC152 (11743942_at) / Fold change /veh CCDC152 (11743942_at) / RFU ECM1 (11717891_a_at) / Fold change /veh ECM1 (11717891_a_at) / RFU IL23R (11748794_a_at) / Fold change /veh IL23R (11748794_a_at) / RFU TNFAIP8L3 (11732012_x_at) / Fold change /veh TNFAIP8L3 (11732012_x_at) / RFU MBOAT4 (11741988_at) / Fold change /veh MBOAT4 (11741988_at) / RFU 11764193_at / Fold change /veh 11764193_at / RFU TMEM53 (11763286_at) / Fold change /veh TMEM53 (11763286_at) / RFU MAGEB2 (11727129_at) / Fold change /veh MAGEB2 (11727129_at) / RFU TMEM200A (11744735_a_at) / Fold change /veh TMEM200A (11744735_a_at) / RFU CCDC152 (11751479_a_at) / Fold change /veh CCDC152 (11751479_a_at) / RFU FAM211A (11726209_a_at) / Fold change /veh FAM211A (11726209_a_at) / RFU RGS16 (11746705_a_at) / Fold change /veh RGS16 (11746705_a_at) / RFU VCAN (11755009_s_at) / Fold change /veh VCAN (11755009_s_at) / RFU RHOB (11743442_s_at) / Fold change /veh RHOB (11743442_s_at) / RFU RGS16 (11720943_a_at) / Fold change /veh RGS16 (11720943_a_at) / RFU RGS16 (11720944_at) / Fold change /veh RGS16 (11720944_at) / RFU, VPS4B / Fold change vs veh, VPS4B / RFU, CREB1 / Fold change vs veh, CREB1 / RFU, DNAJC13 / Fold change vs veh, DNAJC13 / RFU, GNAQ / Fold change vs veh, GNAQ / RFU, CDK5R1 / Fold change vs veh, CDK5R1 / RFU, ZRANB3 / Fold change vs veh, ZRANB3 / RFU, CUL4A / Fold change vs veh, CUL4A / RFU, CCNY / Fold change vs veh, CCNY / RFU, UFL1 / Fold change vs veh, UFL1 / RFU, COG3 / Fold change vs veh, COG3 / RFU, DIAPH2 / Fold change vs veh, DIAPH2 / RFU, SKA2 / Fold change vs veh, SKA2 / RFU, AFF3 / Fold change vs veh, AFF3 / RFU, LMF1 / Fold change vs veh, LMF1 / RFU, IPO11 / Fold change vs veh, IPO11 / RFU, DFFB / Fold change vs veh, DFFB / RFU, FOXP1 / Fold change vs veh, FOXP1 / RFU, CARD8 / Fold change vs veh, CARD8 / RFU, STRN3 / Fold change vs veh, STRN3 / RFU, ADK / Fold change vs veh, ADK / RFU, RASSF2 / Fold change vs veh, RASSF2 / RFU, WIPF1 / Fold change vs veh, WIPF1 / RFU, LARP1B / Fold change vs veh, LARP1B / RFU, RASA1 / Fold change vs veh, RASA1 / RFU, RB1 / Fold change vs veh, RB1 / RFU, PPFIA1 / Fold change vs veh, PPFIA1 / RFU, MAT2A / Fold change vs veh, MAT2A / RFU, CCT5 / Fold change vs veh, CCT5 / RFU, WDR92 / Fold change vs veh, WDR92 / RFU, CUX1 / Fold change vs veh, CUX1 / RFU, TTC7A / Fold change vs veh, TTC7A / RFU, TMEM135 / Fold change vs veh, TMEM135 / RFU, DEPTOR / Fold change vs veh, DEPTOR / RFU, CPM / Fold change vs veh, CPM / RFU, DNAJB6 / Fold change vs veh, DNAJB6 / RFU, CACNA2D3 / Fold change vs veh, CACNA2D3 / RFU, DTX4 / Fold change vs veh, DTX4 / RFU, TFCP2 / Fold change vs veh, TFCP2 / RFU, GMCL1 /// GMCL1P1 / Fold change vs veh, GMCL1 /// GMCL1P1 / RFU, AEBP2 / Fold change vs veh, AEBP2 / RFU, SNHG1 /// SNORD22 /// SNORD25 /// SNORD26 /// SNORD27 /// SNORD28 /// SNORD29 /// SNORD31 / Fold change vs veh, SNHG1 /// SNORD22 /// SNORD25 /// SNORD26 /// SNORD27 /// SNORD28 /// SNORD29 /// SNORD31 / Fold change (Aza/veh), C12orf56 (ProbeSet 11735607_a_at) / Fold change (ACY-1035/veh), C12orf56 (ProbeSet 11735607_a_at) / Fold change (Aza/veh), FGFR1OP (ProbeSet 11751329_s_at) / Fold change (ACY-1035/veh), FGFR1OP (ProbeSet 11751329_s_at) / Fold change (Aza/veh), VPS36 (ProbeSet 11739960_a_at) / Fold change (ACY-1035/veh), VPS36 (ProbeSet 11739960_a_at) / RFU SYPL1 (11715823_x_at) / Fold change /veh SYPL1 (11715823_x_at) / RFU IGFBP7 (11715501_s_at) / Fold change /veh IGFBP7 (11715501_s_at) / RFU REEP3 (11722064_at) / Fold change /veh REEP3 (11722064_at) / RFU IGLL1 (11728026_x_at) / Fold change /veh IGLL1 (11728026_x_at): dose or concentration left out as unconfirmed
# Settings: ProbeSet 11744854_x_at; LIST B
compound,measurement,value
Nc1ncn([C@@H]2O[C@H](CO)[C@@H](O)[C@H]2O)c(=O)n1 [azacitidine],"Fold change vs veh, ZNF28",0.91
